Measurements from patent USRE39071E1, “Anhydro-and isomer-a-21978c cyclic peptides” (Eli Lilly and Company, priority 1987, dated 2006).
Values after ≈ are worked out from the molar mass of the structure shown.

Columns and labels:
Streptococcus pyogenes = experiment: Experimental infection in mice, subcutaneous ED50; format: in vivo; conditions: two doses
Description: (§1) The new derivatives of this invention have also shown in vivo antimicrobial activity against experimental bacterial infections. When two doses of test compound were administered to mice in experimental infections, the activity observed was measured as an ED50 value [effective dose in mg/kg to protect 50% of the test animals: see Warren Wick, et al., J. Bacteriol. 81, 233-235 (1961)].

Streptococcus pneumoniae = experiment: Experimental infection in mice, subcutaneous ED50; format: in vivo; conditions: two doses
Description: as §1

Staphylococcus aueus = experiment: Experimental infection in mice, subcutaneous ED50; format: in vivo; conditions: two doses
Description: as §1

[1] = tested on: Haemophilus influenzae 76 (ampicillin-resistant strain); experiment: Agar-dilution MIC; format: cell-based; design: unit not given beside the values
From the text: (§2) Table I summarizes the minimal inhibitory concentrations (MIC's) at which the two illustrative compounds, anhydro-LY146032 and isomer-LY146032, inhibit certain organisms, as determined by standard agar-dilution assays.

[2] = tested on: Staphylacoccus aureus XL1; format: cell-based
From the text: as §2

[3] = tested on: Streptococcus pyogenes C203; format: cell-based
From the text: as §2

[4] = tested on: Streptococcus faecalis X66; format: cell-based
From the text: as §2

[5] = tested on: Streptococcus faecalis 2041; format: cell-based
From the text: as §2

[6] = tested on: Staphylacoccus epidermidis 222; format: cell-based
From the text: as §2

[7] = tested on: Staphylacoccus aureus X400 (methicillin-resistant strain); format: cell-based
From the text: as §2

[8] = tested on: Staphylacoccus aureus V41 (penicillin-resistant strain); format: cell-based
From the text: as §2

[9] = tested on: Haemophilus influenzae CL (ampicillin-sensitive strain); experiment: Agar-dilution MIC; format: cell-based
From the text: as §2

CCCCCCCCCC(=O)N[C@@H](Cc1c[nH]c2ccccc12)C(=O)N[C@@H](CC(N)=O)C(=O)N[C@@H](CC(=O)O)C(=O)N[C@@H]1C(=O)NCC(=O)N[C@@H](CCCN)C(=O)N[C@@H](CC(=O)O)C(=O)N[C@H](C)C(=O)N[C@H]2CC(=O)N(CC(=O)N[C@H](CO)C(=O)N[C@@H]([C@H](C)CC(=O)O)C(=O)N[C@@H](CC(=O)c3ccccc3N)C(=O)O[C@@H]1C)C2=O [Anhydro-LY146032]
Subcutaneous ED50 (Streptococcus pyogenes): 1.15 mg/kg | Subcutaneous ED50 (Streptococcus pneumoniae): 3.36 mg/kg | Subcutaneous ED50 (Staphylococcus aueus): 9.05 mg/kg | MIC [1]: — (>128) | MIC [2]: 4 µg/mL (≈ 2.5 µM) | MIC [3]: 1 µg/mL (≈ 0.624 µM) | MIC [4]: 64 µg/mL (≈ 39.9 µM) | MIC [5]: 16 µg/mL (≈ 9.98 µM) | MIC [6]: 4 µg/mL (≈ 2.5 µM) | MIC [7]: 8 µg/mL (≈ 4.99 µM) | MIC [8]: 4 µg/mL (≈ 2.5 µM) | MIC [9]: — (>128)

CCCCCCCCCC(=O)N[C@@H](Cc1c[nH]c2ccccc12)C(=O)N[C@@H](CC(N)=O)C(=O)N[C@@H](CC(=O)O)C(=O)N[C@@H]1C(=O)NCC(=O)N[C@@H](CCCN)C(=O)N[C@@H](CC(=O)O)C(=O)N[C@H](C)C(=O)N[C@H](C(=O)O)CC(=O)NCC(=O)N[C@H](CO)C(=O)N[C@@H]([C@H](C)CC(=O)O)C(=O)N[C@@H](CC(=O)c2ccccc2N)C(=O)O[C@@H]1C [Isomer-LY146032]
Subcutaneous ED50 (Streptococcus pyogenes): <1.25 mg/kg | Subcutaneous ED50 (Streptococcus pneumoniae): 3.40 mg/kg | Subcutaneous ED50 (Staphylococcus aueus): 10.68 mg/kg | MIC [1]: —^ (>128) | MIC [2]: 8 µg/mL (≈ 4.94 µM) | MIC [3]: 2 µg/mL (≈ 1.23 µM) | MIC [4]: 128 µg/mL (≈ 79 µM) | MIC [5]: 32 µg/mL (≈ 19.7 µM) | MIC [6]: 8 µg/mL (≈ 4.94 µM) | MIC [7]: 8 µg/mL (≈ 4.94 µM) | MIC [8]: 8 µg/mL (≈ 4.94 µM) | MIC [9]: —^f (>128)
